Results published in patent US20230000870A1, “METHODS OF TREATING CANCER IN BIOMARKER-IDENTIFIED PATIENTS WITH INHIBITORS OF CYCLIN-DEPENDENT KINASE 7 (CDK7)” (Syros Pharmaceuticals, Inc., priority 2019, published 2023).

Assays:
HCC70 cells = assay: Inhibition of proliferation of HCC70 cells (CyQUANT Direct, 72 hour); type: cell-based, human; conditions: read-out: Inhibition of Proliferation of HCC70 Cells (calculated IC50)
Experimental: HCC70 cells: HCC70 cells are a cell line derived from human triple negative breast cancer. Representative compounds of the invention were tested at different concentrations (from 4 μM to […]; 0.5 log serial dilutions) for their ability to inhibit the proliferation of HCC70 cells. Known CDK inhibitors dinaciclib or N-((1S,3R)-3-((5-chloro-4-(1H-indol-3-yl) pyrimidin-2-yl)amino)cyclohexyl)-5-((E)-4-(dimethylamino)but-2-enamido)picolinamide and triptolide were used as positive controls. Cells were grown in ATCC-formulated RPMI-1640 Medium (ATCC 30-2001)+10% FBS. The cells were cultured at 37° C. in a humidified chamber in the presence of 5% CO2. Proliferation assays were conducted over a 72 hour time period. CyQUANT® Direct Cell Proliferation Assay (Life Technologies, Chicago, Ill. USA) was used to assess the anti-proliferative effects of the compounds following manufacturer's directions and utilizing the reagents supplied with the CyQUANT® Direct Cell kit.

[1] = molecular target: T1, CDK12 (aa686-1082)/Cyclin K complex (Homo sapiens, UniProt Q9NYV4); assay: CDK12 kinase inhibition assay (Caliper/LabChip EZ Reader); type: biochemical; conditions: CDK12 (aa686-1082)/Cyclin K 50 nM, ATP 2 mM, 3 hr at 27° C.
T1 construct: CDK12 (aa686-1082)/Cyclin K complex
T1 sequence (Q9NYV4 686-1082): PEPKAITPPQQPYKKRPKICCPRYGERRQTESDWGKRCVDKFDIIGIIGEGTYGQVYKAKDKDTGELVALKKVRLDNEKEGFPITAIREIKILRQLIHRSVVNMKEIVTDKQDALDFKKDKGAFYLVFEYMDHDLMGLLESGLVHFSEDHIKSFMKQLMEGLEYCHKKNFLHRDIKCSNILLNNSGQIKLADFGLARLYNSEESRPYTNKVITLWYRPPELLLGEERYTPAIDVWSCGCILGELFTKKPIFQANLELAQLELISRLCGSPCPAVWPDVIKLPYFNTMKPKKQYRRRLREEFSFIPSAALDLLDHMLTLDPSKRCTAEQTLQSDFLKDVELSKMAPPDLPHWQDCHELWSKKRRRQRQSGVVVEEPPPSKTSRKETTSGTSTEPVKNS
T1 sequence (O75909 whole entry partner, the tested form may be a part): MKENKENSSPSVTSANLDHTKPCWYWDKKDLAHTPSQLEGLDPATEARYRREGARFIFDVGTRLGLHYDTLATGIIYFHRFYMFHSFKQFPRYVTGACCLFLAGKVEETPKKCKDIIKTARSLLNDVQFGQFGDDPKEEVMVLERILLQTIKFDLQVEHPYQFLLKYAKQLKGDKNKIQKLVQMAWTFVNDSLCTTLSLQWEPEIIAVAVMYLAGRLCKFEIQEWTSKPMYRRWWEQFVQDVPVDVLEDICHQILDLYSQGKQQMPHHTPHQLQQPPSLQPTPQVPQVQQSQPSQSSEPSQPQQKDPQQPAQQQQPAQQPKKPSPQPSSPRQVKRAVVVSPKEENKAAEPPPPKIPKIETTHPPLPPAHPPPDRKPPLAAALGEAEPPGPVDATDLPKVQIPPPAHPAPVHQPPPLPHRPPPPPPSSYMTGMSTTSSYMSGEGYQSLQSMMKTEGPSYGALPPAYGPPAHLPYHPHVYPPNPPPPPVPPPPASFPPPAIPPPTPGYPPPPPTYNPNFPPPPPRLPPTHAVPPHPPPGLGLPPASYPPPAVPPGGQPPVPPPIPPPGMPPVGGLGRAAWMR
Outline: (§1)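 Caliper/LabChip mobility-shift kinase assays at 27° C. CDK9/Cyclin T1 8 nM with 2 μM 5-FAM-CDK9tide, 10 mM MgCl2, 15 min; CDK12/Cyclin K 50 nM with 5-FAM-CDK9tide 2 μM, 2 mM MgCl2, 3 hr; CDK2/Cyclin E1 0.5 nM with 5-FAM-CDK7tide 2 μM, 2 mM MgCl2, 35 min; CDK7 35 min.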

CDK2/Cyclin E1 complex = CDK2/Cyclin E1 complex (Homo sapiens, UniProt P24941); assay: CDK2 kinase inhibition assay (Caliper/LabChip EZ Reader); type: biochemical; conditions: CDK2/Cyclin E1 0.5 nM, ATP 2 mM, 35 min at 27° C.
Outline: as §1

CDK9/Cyclin T1 complex = CDK9/Cyclin T1 complex (Homo sapiens, UniProt P50750); assay: CDK9 kinase inhibition assay (Caliper/LabChip EZ Reader); type: biochemical; conditions: CDK9/Cyclin T1 8 nM, ATP 2 mM, 15 min at 27° C.
Chain of CDK9/Cyclin T1 complex (P50750 whole entry): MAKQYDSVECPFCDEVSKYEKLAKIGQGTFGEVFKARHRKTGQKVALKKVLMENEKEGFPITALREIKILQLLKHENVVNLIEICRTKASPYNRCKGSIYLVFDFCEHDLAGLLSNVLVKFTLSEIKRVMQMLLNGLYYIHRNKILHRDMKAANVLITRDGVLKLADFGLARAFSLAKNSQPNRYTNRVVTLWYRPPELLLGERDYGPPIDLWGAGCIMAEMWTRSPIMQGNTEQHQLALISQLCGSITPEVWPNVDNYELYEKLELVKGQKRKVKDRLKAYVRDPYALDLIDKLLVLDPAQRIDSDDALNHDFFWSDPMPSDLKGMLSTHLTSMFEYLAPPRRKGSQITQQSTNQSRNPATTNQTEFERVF
Chain of CDK9/Cyclin T1 complex (O60563 whole entry partner): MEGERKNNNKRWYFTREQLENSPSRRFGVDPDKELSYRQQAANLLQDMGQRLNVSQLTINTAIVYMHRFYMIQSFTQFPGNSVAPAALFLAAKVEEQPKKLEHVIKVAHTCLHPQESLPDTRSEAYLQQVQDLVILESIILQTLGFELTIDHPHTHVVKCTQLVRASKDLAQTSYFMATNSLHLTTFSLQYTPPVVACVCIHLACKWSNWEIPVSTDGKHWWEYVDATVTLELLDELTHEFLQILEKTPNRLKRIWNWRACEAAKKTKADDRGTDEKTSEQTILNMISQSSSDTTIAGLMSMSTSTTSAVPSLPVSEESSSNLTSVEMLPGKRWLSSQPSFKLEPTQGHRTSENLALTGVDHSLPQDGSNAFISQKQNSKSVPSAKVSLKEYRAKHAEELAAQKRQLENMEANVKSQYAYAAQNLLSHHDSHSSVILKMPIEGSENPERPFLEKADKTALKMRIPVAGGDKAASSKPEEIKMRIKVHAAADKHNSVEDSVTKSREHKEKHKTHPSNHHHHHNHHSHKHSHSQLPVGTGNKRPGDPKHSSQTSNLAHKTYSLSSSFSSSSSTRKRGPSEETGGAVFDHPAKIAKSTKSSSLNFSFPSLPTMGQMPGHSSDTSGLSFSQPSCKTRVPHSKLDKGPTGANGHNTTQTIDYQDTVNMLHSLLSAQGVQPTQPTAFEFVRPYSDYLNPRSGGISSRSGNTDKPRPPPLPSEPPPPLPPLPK
Outline: as §1

[2] = molecular target: CDK7/Cyclin H/MAT1 complex (Homo sapiens, UniProt P50613); assay: CDK7 kinase inhibition assay (Caliper/LabChip EZ Reader); type: biochemical; conditions: CDK7/Cyclin H/MAT1 6 nM, ATP 2 mM, 35 min at 27° C.
Chain of CDK7/Cyclin H/MAT1 complex (P50613 whole entry): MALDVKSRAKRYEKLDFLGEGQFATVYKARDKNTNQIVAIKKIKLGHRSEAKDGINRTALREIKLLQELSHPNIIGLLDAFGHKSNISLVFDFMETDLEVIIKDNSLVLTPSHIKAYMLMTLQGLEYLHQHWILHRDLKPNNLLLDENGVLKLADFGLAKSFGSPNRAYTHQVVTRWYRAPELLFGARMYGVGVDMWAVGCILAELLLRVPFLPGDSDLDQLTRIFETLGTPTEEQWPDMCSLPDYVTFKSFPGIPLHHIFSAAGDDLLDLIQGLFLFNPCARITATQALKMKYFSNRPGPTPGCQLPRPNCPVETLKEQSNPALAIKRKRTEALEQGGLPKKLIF
Chain of CDK7/Cyclin H/MAT1 complex (P51946 whole entry partner): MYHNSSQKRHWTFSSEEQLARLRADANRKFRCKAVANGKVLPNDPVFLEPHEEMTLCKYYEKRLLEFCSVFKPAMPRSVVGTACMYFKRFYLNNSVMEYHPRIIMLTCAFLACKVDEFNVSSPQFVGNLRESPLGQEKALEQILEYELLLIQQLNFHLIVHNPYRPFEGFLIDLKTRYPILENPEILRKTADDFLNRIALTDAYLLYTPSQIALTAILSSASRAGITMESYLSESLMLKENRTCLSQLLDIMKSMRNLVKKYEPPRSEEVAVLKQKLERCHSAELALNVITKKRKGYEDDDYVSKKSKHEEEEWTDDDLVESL
Chain of CDK7/Cyclin H/MAT1 complex (P51948 whole entry partner): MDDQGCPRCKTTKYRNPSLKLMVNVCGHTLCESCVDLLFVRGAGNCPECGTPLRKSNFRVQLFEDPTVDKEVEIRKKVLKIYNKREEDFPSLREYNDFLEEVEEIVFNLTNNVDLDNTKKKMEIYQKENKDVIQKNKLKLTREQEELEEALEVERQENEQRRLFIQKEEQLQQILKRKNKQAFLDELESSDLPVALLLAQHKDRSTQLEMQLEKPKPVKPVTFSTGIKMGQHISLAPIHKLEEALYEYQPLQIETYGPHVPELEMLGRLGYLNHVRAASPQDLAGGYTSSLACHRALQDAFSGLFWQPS
Outline: as §1

Structure (SMILES) | IC50 [1] [nM] | IC50 (CDK2/Cyclin E1 complex) [nM] | IC50 (CDK9/Cyclin T1 complex) [nM] | IC50 [2] [nM] | IC50 (HCC70 cells) [nM]
CCc1cnc(NC2CCCNC2)nc1-c1c[nH]c2c(S(C)(=O)=O)cccc12 (stereo not shown) [Compound 269] | – | – | – | – | 100 to 1000
CS(=O)(=O)c1c(C#N)ccc2c(-c3nc(NC4CCCNC4)ncc3Cl)c[nH]c12 (stereo not shown) [Compound 294] | 200 to 5000 | 200 to 5000 | 200 to 5000 | < 20 | < 100
COCn1cc(-c2nc(NC3CCCNC3)ncc2C(F)(F)F)c2cccc(C#N)c21 (stereo not shown) [Compound 295] | ≥ 5000 | ≥ 5000 | ≥ 5000 | 20 to 200 | 1000 to 5000
Cn1cc(-c2nc(NC3CCCNC3)ncc2C(F)(F)F)c2cccc(S(C)(=O)=O)c21 (stereo not shown) [Compound 296] | ≥ 5000 | ≥ 5000 | ≥ 5000 | 20 to 200 | 1000 to 5000
CCN1CCCC(Nc2ncc(C(F)(F)F)c(-c3c[nH]c4cc(S(C)(=O)=O)ccc34)n2)C1 (stereo not shown) [Compound 298] | 200 to 5000 | 200 to 5000 | ≥ 5000 | < 20 | 100 to 1000
N#Cc1ccc2c(-c3nc(NC4CCCNC4)ncc3OC(F)F)c[nH]c2c1 (stereo not shown) [Compound 301] | ≥ 5000 | ≥ 5000 | ≥ 5000 | 20 to 200 | 1000 to 5000
CNC(=O)c1cccc2c(-c3nc(NC4CCCNC4)ncc3C(F)(F)F)cn(COC)c12 (stereo not shown) [Compound 304] | ≥ 5000 | ≥ 5000 | ≥ 5000 | ≥ 5000 | 1000 to 5000
FC(F)(F)Sc1cnc(NC2CCCNC2)nc1-c1c[nH]c2ccccc12 (stereo not shown) [Compound 305] | 200 to 5000 | 200 to 5000 | 200 to 5000 | < 20 | 1000 to 5000
CNC(=O)c1cccc2c(-c3nc(NC4CCCNC4)ncc3C(F)(F)F)cn(C)c12 (stereo not shown) [Compound 307] | ≥ 5000 | ≥ 5000 | ≥ 5000 | ≥ 5000 | 1000 to 5000
Cc1c(-c2ccc3c(-c4nc(NC5CCCNC5)ncc4C(F)(F)F)c[nH]c3c2)c[nH]c(=O)c1C#N (stereo not shown) [Compound 311] | 200 to 5000 | 200 to 5000 | 200 to 5000 | < 20 | 1000 to 5000
Nc1nc2c(-c3ccc4c(-c5nc(NC6CCCNC6)ncc5C(F)(F)F)c[nH]c4c3)cccc2s1 (stereo not shown) [Compound 312] | 200 to 5000 | – | – | 20 to 200 | 100 to 1000
FC(F)(F)c1cnc(NC2CCCNC2)nc1-c1c[nH]c2cc(-c3ccc4[nH]cnc4c3)ccc12 (stereo not shown) [Compound 313] | 200 to 5000 | 200 to 5000 | 200 to 5000 | < 20 | 100 to 1000
N#Cc1cc(-c2ccc3c(-c4nc(NC5CCCNC5)ncc4C(F)(F)F)c[nH]c3c2)ccc1O (stereo not shown) [Compound 315] | 200 to 5000 | – | – | 20 to 200 | 1000 to 5000
FC(F)(F)c1cnc(N[C@H]2CCCNC2)nc1-c1c[nH]c2cc(/C=C/c3ccccc3)ccc12 [Compound 317] | 200 to 5000 | – | – | 20 to 200 | 1000 to 5000
FC(F)(F)c1cc2[nH]cc(-c3ccc4c(-c5nc(N[C@H]6CCCNC6)ncc5C(F)(F)F)c[nH]c4c3)c2cn1 [Compound 319] | 200 to 5000 | – | – | 20 to 200 | 1000 to 5000
Cn1cc(-c2ccc3c(-c4nc(N[C@H]5CCCNC5)ncc4C(F)(F)F)c[nH]c3c2)c2cnc(C(F)(F)F)cc21 [Compound 320] | 200 to 5000 | – | – | 20 to 200 | 1000 to 5000
Nc1ncc2cccc(-c3ccc4c(-c5nc(NC6CCCNC6)ncc5C(F)(F)F)c[nH]c4c3)c2n1 (stereo not shown) [Compound 322] | 200 to 5000 | – | – | < 20 | 100 to 1000
OCCc1cccc(-c2ccc3c(-c4nc(NC5CCCNC5)ncc4C(F)(F)F)c[nH]c3c2)c1 (stereo not shown) [Compound 324] | 200 to 5000 | – | – | 20 to 200 | 100 to 1000
FC(F)(F)c1cnc(N[C@H]2CCCNC2)nc1-c1c[nH]c2cc(-c3ccc4ccncc4c3)ccc12 [Compound 325] | 200 to 5000 | – | – | 20 to 200 | 100 to 1000
CCOc1ccccc1-c1ccc2c(-c3nc(NC4CCCNC4)ncc3C(F)(F)F)c[nH]c2c1 (stereo not shown) [Compound 327] | 200 to 5000 | – | – | 20 to 200 | 100 to 1000
NS(=O)(=O)c1ccc(-c2ccc3c(-c4nc(N[C@H]5CCCNC5)ncc4C(F)(F)F)c[nH]c3c2)cc1 [Compound 331] | 200 to 5000 | – | – | 20 to 200 | 100 to 1000
Fc1cncc(-c2ccc3c(-c4nc(NC5CCCNC5)ncc4C(F)(F)F)c[nH]c3c2)c1 (stereo not shown) [Compound 335] | – | – | – | – | 100 to 1000
Cn1ncc2ccc(-c3ccc4c(-c5nc(NC6CCCNC6)ncc5C(F)(F)F)c[nH]c4c3)cc21 (stereo not shown) [Compound 337] | 200 to 5000 | – | – | 20 to 200 | 100 to 1000

Continued, in another order:

IC50 [1] [nM] | IC50 (CDK2/Cyclin E1 complex) [nM] | IC50 (CDK9/Cyclin T1 complex) [nM] | IC50 [2] [nM] | Structure (SMILES) | IC50 (HCC70 cells) [nM]
200 to 5000 | ≥ 5000 | ≥ 5000 | 20 to 200 | COC1CCN(C(=O)c2ccc3c(-c4nc(NC5CCCNC5)ncc4C(F)(F)F)c[nH]c3c2)C1 (stereo not shown) [Compound 280] | 100 to 1000
200 to 5000 | 200 to 5000 | 200 to 5000 | < 20 | COC1CCN(C(=O)c2ccc3c(-c4nc(NC5CCCNC5)ncc4C(F)(F)F)c[nH]c3c2)C1 (stereo not shown) [Compound 281] | 100 to 1000
200 to 5000 | 200 to 5000 | ≥ 5000 | < 20 | CC1(O)CCN(C(=O)c2ccc3c(-c4nc(N[C@H]5CCCNC5)ncc4C(F)(F)F)c[nH]c3c2)CC1 [Compound 282] | 100 to 1000
200 to 5000 | 200 to 5000 | 200 to 5000 | < 20 | N#CC1CCN(C(=O)c2ccc3c(-c4nc(NC5CCCNC5)ncc4C(F)(F)F)c[nH]c3c2)C1 (stereo not shown) [Compound 293] | 100 to 1000
200 to 5000 | 200 to 5000 | 200 to 5000 | < 20 | CNC(=O)c1ccc2c(-c3nc(NC4CCCNC4)ncc3C(F)(F)F)c[nH]c2n1 (stereo not shown) [Compound 297] | < 100
200 to 5000 | 200 to 5000 | 200 to 5000 | < 20 | O=C(c1ccc2c(-c3nc(NC4CCCNC4)ncc3C(F)(F)F)c[nH]c2c1)N1CCC(O)(C(F)(F)F)C1 (stereo not shown) [Compound 299] | 1000 to 5000
200 to 5000 | 200 to 5000 | 200 to 5000 | < 20 | O=C(c1ccc2c(-c3nc(NC4CCCNC4)ncc3C(F)(F)F)c[nH]c2c1)N1CCC(O)(C(F)(F)F)C1 (stereo not shown) [Compound 300] | 100 to 1000
200 to 5000 | 200 to 5000 | 200 to 5000 | 20 to 200 | O=C1CCN(C(=O)c2ccc3c(-c4nc(NC5CCCNC5)ncc4C(F)(F)F)c[nH]c3c2)C1 (stereo not shown) [Compound 302] | 100 to 1000
200 to 5000 | 200 to 5000 | 200 to 5000 | < 20 | Cn1ccc(-c2ccc3c(-c4nc(NC5CCCNC5)ncc4C(F)(F)F)c[nH]c3c2)n1 (stereo not shown) [Compound 303] | 100 to 1000
200 to 5000 | 200 to 5000 | ≥ 5000 | 20 to 200 | O=C(O)c1ccc2c(-c3nc(NC4CCCNC4)ncc3C(F)(F)F)c[nH]c2c1 (stereo not shown) [Compound 306] | 100 to 1000
200 to 5000 | 200 to 5000 | 200 to 5000 | < 20 | O=C(c1ccc2c(-c3nc(NC4CCCNC4)ncc3C(F)(F)F)c[nH]c2c1)N1CC(O)C(F)(F)C1 (stereo not shown) [Compound 308] | 100 to 1000
200 to 5000 | ≥ 5000 | ≥ 5000 | 20 to 200 | CCC1(O)CCN(C(=O)c2ccc3c(-c4nc(NC5CCCNC5)ncc4C(F)(F)F)c[nH]c3c2)C1 (stereo not shown) [Compound 309] | 1000 to 5000
200 to 5000 | 200 to 5000 | ≥ 5000 | < 20 | Oc1ncccc1-c1ccc2c(-c3nc(NC4CCCNC4)ncc3C(F)(F)F)c[nH]c2c1 (stereo not shown) [Compound 310] | 100 to 1000
200 to 5000 | 200 to 5000 | 200 to 5000 | < 20 | NC(=O)c1cccc(-c2ccc3c(-c4nc(NC5CCCNC5)ncc4C(F)(F)F)c[nH]c3c2)c1 (stereo not shown) [Compound 314] | 100 to 1000
200 to 5000 | 200 to 5000 | ≥ 5000 | < 20 | OCc1cccc(-c2ccc3c(-c4nc(NC5CCCNC5)ncc4C(F)(F)F)c[nH]c3c2)n1 (stereo not shown) [Compound 316] | 100 to 1000
200 to 5000 | – | – | 20 to 200 | NS(=O)(=O)c1cccc(-c2ccc3c(-c4nc(NC5CCCNC5)ncc4C(F)(F)F)c[nH]c3c2)c1 (stereo not shown) [Compound 326] | 100 to 1000
